Results on 90 compounds are retold here after a melting point compilation (Tetko et al.; mined from patent text by program, amines drawn as free bases though some values may be those of a salt).

Broadly, the melting point is the temperature of the solid-liquid transition.

Bounds are passed on as bounds.

In turn, `N#CCCN1CCN(Cc2ccc3c(c2)-c2[nH]nc(-c4ccsc4)c2C3)CC1` had a melting point of 156 to 157 °C.
Take `Cc1cc(Oc2c(Cl)cc(C(F)(F)F)cc2Cl)nn1C(=O)NC(C)(C)C`: the melting point fell in the range of 116 to 117 °C.
With `CCCOC(=O)c1cc(OC)c(OC)c(OCC)c1-c1c(C(=O)OC)cc(OC)c2c1OCO2` the figure was 74.5 to 76 °C; with `CC(C)Oc1ccc(COc2ccc(CC(=O)O)cc2Cl)cc1Cl`, 129 to 130 °C.
With `CCC1(C)COP(=O)(Cc2ccc(N)cc2)OC1` (stereo not given) the figure was 130 to 131 °C; with `CC(=O)Nc1cccc(Oc2cc(-c3ccc(C(F)(F)F)cc3)ncn2)c1`, 202 to 205 °C.
For `COc1c(NC(=O)Nc2ccc(Oc3ccoc(=O)c3)c3ccccc23)cc(C(C)(C)C)cc1NS(C)(=O)=O` the value was 185 to 187 °C; for `Cc1ccc(S(=O)(=O)Oc2ccccc2-c2cc3c(C(N)=O)cccc3[nH]2)cc1`, 135 °C.
Compound `COc1cc2sc(C(=O)O)c(Cl)c2cc1OC` had a melting point of more than 260 °C.
For `CCOC(=O)c1cc(-n2c(=O)[nH]c3c(c2=O)CCC3)ccc1Cl` the value was 178 to 180 °C.
The compound `CCOC(=O)c1nc(NCC(c2ccccc2)c2ccccc2)c2ncn(C3CCCCO3)c2n1` (stereo not given) yielded a melting point of 138 to 140 °C.
In the case of `CSCC[C@H](NC(=O)[C@@H]1CCC(=O)N1)C(=O)N[C@@H](C)C(=O)N[C@H](C(=O)N[C@@H](CCCCN)C(=O)O)C(C)C`, the melting point lay within 238 to 242 °C.
With `CNC(=O)C(CNC(=O)c1ccccc1)NC(=O)OC(C)(C)C` (stereo not given) the figure was 222 to 223 °C.
For `CCCn1c(N)cc(=O)n1-c1ccccc1` the value was 183 to 185 °C; for `COc1cc(C(=O)Nc2cc(F)ccc2C(=O)O)cc(OC)c1OC`, 232 to 233 °C; for `O=C(O)/C=C(\CC(O)CCCCCCc1ccc(Cl)cc1Cl)C(=O)O` (stereo not given), 92 to 93 °C.
With `O=c1oc(-c2cccc(-c3ccccc3)c2)cc(O)c1Sc1ccc2ccccc2c1` the figure was 183 to 185 °C.
Regarding `NC(=O)NCCCCC1CCSS1` (stereo not given), the melting point fell in the range of 110 to 113 °C.
For `Cc1ccc(NS(=O)(=O)c2cc(C)c3cc(C(C)C)ccc(C)c2-3)cc1` the value was 146 to 148 °C; for `O=C(O)c1nn(CCCCCCl)c2c1CCc1cc(Cl)sc1-2`, 205 to 208 °C; for `COc1cc(OCCN2CCCC2)c2c(=O)[nH]c(-c3cc(C)nc(C)c3)nc2c1`, 190 to 191 °C.
For `COC(=O)C1=C(C)NC(C)=C(C(=O)OC)C1c1cccc(N)c1` the value was 214 to 215 °C; for `CN(C)C(=O)CN1CCC(c2ccc(Nc3nc4c(-c5ccc[nH]c5=O)cccn4n3)cc2)CC1`, more than 250 °C; for `O=C(O)CCCCCOc1c(Cl)cc(NC(=O)NC(=O)c2ccccc2Cl)cc1Cl`, 171 to 173 °C.
`COc1cc2c(cc1Nc1ncc(Cl)c(Nc3ccccc3S(=O)(=O)N(C)C)n1)CCN(CC(=O)N1CCN(C)CC1)CC2` returned a melting point of 140 °C.
With `CC(=O)c1ccc(Nc2ccncc2N)cc1` the figure was 165 to 166 °C; with `CCOP(=O)(CCCOn1cnc2c(Cl)nc(NC=O)nc21)OCC`, 121 to 124 °C.
Compound `O=C(O)c1ccccc1-c1nc2ccccc2o1` returned a melting point of more than 250 °C.
As for `CC(=O)Nc1cc2c(s1)C(c1ccccc1)CN(C)CC2` (stereo not given), the melting point stood at 180 °C.
For `N#Cc1sc(Cl)c(Cl)c1Cl` the value was 63 to 64 °C; for `Cc1ccc(N=C(NC#N)NCc2ccc3c(c2)CN(C2CCC(=O)NC2=O)C3=O)cc1Cl` (stereo not given), 325 to 327 °C.
For `CC1(C)CC(=O)c2cc(C#N)c(NC3CCCC3)nc2C1` the value was 154 to 156 °C; for `Cc1c(Cl)ccc2cc(C(F)(F)F)c(C(F)(F)F)nc12`, 70 to 73 °C; for `CCCCCCCCCCCCCCOc1ccccc1CO`, 33 to 34 °C.
Compound `CCOC(=O)c1cnc(Cl)nc1NCc1ccc(OC)c(Cl)c1` displayed a melting point of 114 to 115 °C.
With `CC(C)n1c(=O)n(C)c2cc(-c3ncc(C(F)(F)F)cc3Cl)ccc21` the figure was 108 to 109 °C; with `CCOC(=O)CNC1=C(C(=O)c2cccnc2Cl)CCC1`, 114 to 118 °C.
For `N#CC1=Cc2ccc(OCc3ccccc3)cc2OC1` the value was 108 to 109 °C; for `Nc1sc2c(c1C(=O)c1ccccc1)CCN(C(=O)OCc1ccccc1)C2`, 138 to 140 °C; for `O=C(NCC12CC3CC(CC(C3)C1)C2)c1cc(F)ccc1Br`, 143 to 144 °C.
For `C[C@@H](NC(=O)c1csc(-c2ccc(Cl)cc2)n1)[C@](O)(Cn1cncn1)c1ccc(F)cc1F` the value was 201 to 204 °C; for `Fc1ccc(Nc2ncnc3cnc(OC4CCOC4)nc23)cc1Cl` (stereo not given), 163 to 165 °C.
As for `C=CCOC(=O)c1cccc(NC(=O)NCC(=O)Nc2ccccc2C(=O)c2cccs2)c1`, the melting point was in the range of 140 to 141 °C.
For `CC(=O)NCCSc1c(Cl)cc([N+](=O)[O-])c(C)c1[N+](=O)[O-]` the value was 152 °C; for `CCCCc1nc2cccnc2n1Cc1ccc2c(Cl)c(C(=O)O)sc2c1`, more than 260 °C.
For `COC(=O)c1cc(-c2cc(C)[nH]c2C)nn1C` the value was 63 to 65 °C; for `O=C(CC(CCCc1ccccc1)C(=O)O)c1ccc(Br)cc1` (stereo not given), 147 °C.
With `CON=C(N)Nc1nc(C)cc(C)n1` the figure was 134 to 136 °C; with `O=C(O)COc1ccc2cc(-c3csc(Cc4c(Cl)cccc4Cl)n3)ccc2c1`, 205 to 207 °C; with `CCn1c(=O)c2c(nc(/C=C/c3ccc(OC)c(C)c3)n2C)n(CC)c1=O`, 176 to 178 °C.
`COc1ccc2c(c1)CC(Nc1ccc(OCc3ccccc3)cc1)C2` (stereo not given) showed a melting point of 55 to 57 °C.
Consider `CCCCCN1N=C(c2ccc3c(c2)N(S(C)(=O)=O)CCO3)CCC1=O`, for which the melting point was 138 to 139 °C.
For `O=C(Nc1cccc(-c2ccnc3c(C(=O)c4cccs4)cnn23)c1)c1cc(C(F)(F)F)ccc1C(F)(F)F` the value was 208 to 210 °C; for `N#Cc1cccc(C2=Nc3cc(CO)c(-c4ccccc4F)cc3NC(=O)C2)c1`, 90 to 91 °C.
With `O=C(NO)c1ccc(CNC(=O)c2[nH]c(-c3ccccc3)cc2-c2ccc(Cl)c(Cl)c2)cc1`, the melting point fell in the range of 187 to 188 °C.
With `Nc1ncc2sc(=O)n(C3OC(CO)C(O)C3O)c2n1` (stereo not given) the figure was 220 °C; with `Cc1ccc(N2C(=O)c3ccccc3C2=O)c(Cl)c1Cl`, 109 °C; with `CC(C(=O)O)c1ccc2c(c1)C(=O)Cc1ccccc1C2` (stereo not given), 134 to 136 °C.
With `COc1ccc(-c2cc(C(C)(C)C)c(O)c(C(C)(C)C)c2)cc1` the figure was 109 to 110 °C; with `C[C@@H]1CCN(C(=O)CC#N)C[C@@H]1N(C)c1ncnc2sccc12`, 74.3 °C.
With `CC(C)(C)c1cc(SCCC(=O)N(C2CCCCC2)C2CCCCC2)cc(C(C)(C)C)c1O` the figure was 168 to 172 °C; with `CCCCCCCCCN1C(=O)N(c2ccc([N+](=O)[O-])c(C(F)(F)F)c2)C(=O)C1(C)C`, 63 °C.
Compound `O=c1[nH]c2cc(Cl)cc(Cl)c2c(=O)n1Cc1cccc2ccccc12` registered a melting point of 274 to 276 °C.
With `CC1CCCC1n1ncc(-c2ccc(S(C)(=O)=O)cc2)c(-c2ccc(F)cc2)c1=O` (stereo not given) the figure was 180 to 181 °C; with `Cc1cc(CN2N=C(C(F)(F)C(F)(F)F)NC2(O)c2ccc(Cl)cc2)ccc1[N+](=O)[O-]` (stereo not given), 90 to 92 °C.
With `Cc1cc(C)c(Oc2ccc(C=NNC(N)=O)cc2)c(C)c1` the figure was 189 to 190 °C; with `CCOC(=O)c1cc2ccccc2n1S(=O)(=O)c1ccc(C)cc1`, 92 to 95 °C.
For `CC(C)(C)c1ccc(CCN2C(=O)COc3ccc(C=C4SC(=S)NC4=O)cc32)cc1` the value was 283 to 285 °C; for `COC(=O)CNC(=O)c1ccc2ccccc2c1`, 118 °C.
In turn, `CC(C)c1ncc2cc(Cl)nc(Cl)n12` gave a melting point of 90 to 93 °C.
On to `Cc1cc(NCc2ccc3c(c2)OCO3)nc(SCC#N)n1`, for which the melting point lay in the range of 115 to 118 °C.
For `COCc1c(C)ccc(C(O)=S)c1C` the value was 192 to 194 °C; for `CC(C)(C)Nc1nc(N)nc2c1ncn2C1C=CC(CO)C1` (stereo not given), 161 to 163 °C; for `CCCCc1sc(-c2ccccc2)nc1O`, 69 to 71 °C.
For `Cc1c(C(=O)Nc2ccc(N(CCO)CCO)c(C#N)c2)c2cc(F)ccc2n1CC(=O)O` the value was 150 to 153 °C; for `Cc1nc(-c2ccccc2)nc(-c2cccc([N+](=O)[O-])c2)c1CN`, 145 to 147 °C; for `CCCCCCCCCCCCCCCC(O)C(N)CO` (stereo not given), 81 °C.
With `C[C@@H]1CCN(C(=O)C(C)(C)C)[C@@H](C(=O)NOCc2ccccc2)C1` the figure was 107 to 108 °C; with `OC(CNCc1ccccc1)c1ccc(OCc2ccccc2)c(F)c1` (stereo not given), 113 to 114 °C.
For the compound `CCOC(=O)NN=Cc1c[nH]c(C(C)(C)C)n1`, the melting point fell in the range of 194 to 197 °C.
As for `Cc1nn2c(c1C(N)=O)NCC=C2c1cc(Cl)ccc1Cl`, the melting point fell in the range of 93 to 96 °C.
For `CC(C)Oc1cccc2oc(C(=O)O)cc12` the value was 148 to 150 °C; for `CCN(CC)C(=O)Cc1cccc(Oc2ccccc2F)c1N`, 159 to 160 °C; for `CN(C(=O)On1cccn1)c1ccccc1`, 63 to 67 °C.
With `OCc1ccccc1-c1ccccc1CO`, the melting point lay within 98 to 103 °C.
With `CC(=O)NC[C@H]1CN(c2ccc(N3CCSCC3)c(F)c2)C(=O)O1`, the melting point was determined as 186 °C.
With `COc1cccc(Oc2ccc([C@@H]3CCCN4CCS(=O)(=O)N=C34)cc2)c1` the figure was 139 to 140 °C; with `CCOC(=O)c1c(C)c(C(=O)CC#N)n(C)c1C`, 105 °C; with `N#Cc1cnn(CCCl)c1N`, 156 °C.
For `NS(=O)(=O)c1cc2cc(-c3nc(C(F)(F)F)c[nH]3)ccc2s1` the value was 285 to 286 °C.
